From paper PMC10012049, “Synthesis, α-mannosidase inhibition studies and molecular modeling of 1,4-imino-ᴅ-lyxitols and their C-5-altered N-arylalkyl derivatives” (Beilstein Journal of Organic Chemistry, 2023)
Like-named read-outs stand apart in the source and are kept apart here. Marks after values point to notes of the source that are not given here.

What was measured:
[1] = target: T1, JBMan (Jack bean α-mannosidase) (Canavalia ensiformis, UniProt C0HJB3); assay: α-mannosidase inhibition assay with pNP-Man substrate, JBMan; type: biochemical; conditions: for IC50: 2 mM pNP-Man, pH 5.0, 37 °C; for Ki: Dixon plots, pNP-Man 0.5-4 mM, pH 5.0
T1 construct: purchased Sigma
T1 sequence (C0HJB3 1-981): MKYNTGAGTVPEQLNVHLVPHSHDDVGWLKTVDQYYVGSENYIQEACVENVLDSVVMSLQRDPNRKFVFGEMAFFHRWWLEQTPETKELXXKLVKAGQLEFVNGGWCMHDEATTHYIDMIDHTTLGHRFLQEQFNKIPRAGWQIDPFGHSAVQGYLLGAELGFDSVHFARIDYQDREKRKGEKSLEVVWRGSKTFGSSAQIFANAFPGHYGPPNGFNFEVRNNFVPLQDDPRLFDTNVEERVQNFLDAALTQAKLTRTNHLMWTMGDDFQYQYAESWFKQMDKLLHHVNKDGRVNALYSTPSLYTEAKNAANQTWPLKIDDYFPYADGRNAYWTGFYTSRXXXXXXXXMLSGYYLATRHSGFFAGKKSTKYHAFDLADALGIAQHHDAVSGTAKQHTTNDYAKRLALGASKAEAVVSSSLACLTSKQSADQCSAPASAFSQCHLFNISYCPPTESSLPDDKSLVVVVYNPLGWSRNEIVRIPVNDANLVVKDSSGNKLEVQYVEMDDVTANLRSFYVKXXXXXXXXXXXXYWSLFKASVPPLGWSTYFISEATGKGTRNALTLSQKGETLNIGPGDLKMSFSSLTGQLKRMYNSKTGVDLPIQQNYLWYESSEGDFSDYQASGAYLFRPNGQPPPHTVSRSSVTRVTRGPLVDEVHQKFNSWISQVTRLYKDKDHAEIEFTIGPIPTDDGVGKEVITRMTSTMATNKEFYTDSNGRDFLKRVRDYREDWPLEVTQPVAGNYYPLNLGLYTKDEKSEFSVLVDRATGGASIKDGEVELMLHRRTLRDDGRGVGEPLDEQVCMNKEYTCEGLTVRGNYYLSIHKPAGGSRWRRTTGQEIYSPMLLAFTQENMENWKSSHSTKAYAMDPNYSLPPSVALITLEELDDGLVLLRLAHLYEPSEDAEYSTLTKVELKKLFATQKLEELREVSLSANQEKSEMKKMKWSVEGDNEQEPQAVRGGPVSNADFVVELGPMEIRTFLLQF
Text: (§1) The enzymes screened included two Golgi types (GMIIb and AMAN-2) and two lysosomal types (LManII and JBMan) (Table 1).
(§2) Recombinant soluble forms of Drosophila melanogaster Golgi (GMIIb) and lysosomal (LManII) α-mannosidases as well as Caenorhabditis elegans Golgi α-mannosidase AMAN-2 were produced in Pichia pastoris and enriched by ammonium sulfate precipitation or nickel chelation chromatography as previously described. The α-mannosidase from Canavalia ensiformis (JBMan) was purchased from Sigma. […]
(§3) GMIIb was assayed in the […]
(§4) presence of 0.5 mM CoCl2.
(§5) The lyophilized derivatives used in the assay were dissolved in DMSO to the final concentration 50 mM and further diluted to a desired concentration in water. These derivatives were preincubated with the enzyme in the buffer for 5 min at rt and the reaction was started by addition of the substrate. The reactions were terminated with two volumes (0.1 mL) of 0.5 M sodium carbonate and the production of p-nitrophenol was measured at 405 nm using a multimode reader Mithras LB943 (Berthold Technologies). The average or representative result of three independent experiments made in duplicate is presented.

[2] = target: T2, GMIIb (Golgi α-mannosidase) (Drosophila melanogaster, UniProt Q9VF33); assay: α-mannosidase inhibition assay with pNP-Man substrate, GMIIb; type: biochemical; conditions: for Ki: Dixon plots, pNP-Man 0.5-4 mM, pH 6.0
T2 sequence (Q9VF33 entry or part of it): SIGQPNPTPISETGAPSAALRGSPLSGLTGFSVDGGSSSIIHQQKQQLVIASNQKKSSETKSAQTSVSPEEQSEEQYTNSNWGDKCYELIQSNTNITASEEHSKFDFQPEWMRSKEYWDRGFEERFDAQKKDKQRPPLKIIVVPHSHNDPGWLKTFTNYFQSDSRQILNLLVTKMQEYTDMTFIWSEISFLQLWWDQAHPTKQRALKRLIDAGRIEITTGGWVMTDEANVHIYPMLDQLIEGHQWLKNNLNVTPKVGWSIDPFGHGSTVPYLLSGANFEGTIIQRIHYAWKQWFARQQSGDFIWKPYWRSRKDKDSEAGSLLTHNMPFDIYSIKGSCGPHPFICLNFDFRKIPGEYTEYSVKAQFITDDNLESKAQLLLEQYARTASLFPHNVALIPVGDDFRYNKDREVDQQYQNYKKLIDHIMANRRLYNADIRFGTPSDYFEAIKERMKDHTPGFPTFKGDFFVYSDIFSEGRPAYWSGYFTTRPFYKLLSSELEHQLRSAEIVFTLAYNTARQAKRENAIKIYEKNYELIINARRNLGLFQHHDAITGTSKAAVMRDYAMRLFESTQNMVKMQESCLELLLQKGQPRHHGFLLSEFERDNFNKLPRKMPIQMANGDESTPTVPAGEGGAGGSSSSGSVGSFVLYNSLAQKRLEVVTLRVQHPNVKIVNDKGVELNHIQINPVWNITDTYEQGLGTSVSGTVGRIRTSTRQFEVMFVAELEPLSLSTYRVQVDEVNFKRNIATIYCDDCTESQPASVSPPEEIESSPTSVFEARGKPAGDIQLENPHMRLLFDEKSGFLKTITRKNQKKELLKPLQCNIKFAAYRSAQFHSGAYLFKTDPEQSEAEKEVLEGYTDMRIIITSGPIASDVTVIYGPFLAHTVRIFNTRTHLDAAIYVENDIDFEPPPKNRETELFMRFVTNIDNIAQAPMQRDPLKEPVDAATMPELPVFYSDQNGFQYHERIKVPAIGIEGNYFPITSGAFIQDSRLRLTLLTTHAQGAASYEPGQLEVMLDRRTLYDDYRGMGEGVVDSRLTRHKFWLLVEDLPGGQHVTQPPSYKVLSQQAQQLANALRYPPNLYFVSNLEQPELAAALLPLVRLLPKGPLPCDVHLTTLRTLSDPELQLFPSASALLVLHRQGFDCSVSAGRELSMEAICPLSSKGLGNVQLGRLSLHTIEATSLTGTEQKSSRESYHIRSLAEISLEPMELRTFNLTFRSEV
Text: as §1, §2, §3, §4, §5

[3] = target: T3, AMAN-2 (Golgi α-mannosidase II) (Caenorhabditis elegans, UniProt Q2PJ74); assay: α-mannosidase inhibition assay with pNP-Man substrate, AMAN-2; type: biochemical; conditions: for SI [IC50 (JBMan)/IC50 (AMAN-2)]: ratio of IC50 values; for Selectivity index, SI [Ki (JBMan)/Ki (AMAN-2)]: ratio of Ki values; for times more potent toward AMAN-2 than DIM: relative to DIM
T3 sequence (Q2PJ74 entry or part of it): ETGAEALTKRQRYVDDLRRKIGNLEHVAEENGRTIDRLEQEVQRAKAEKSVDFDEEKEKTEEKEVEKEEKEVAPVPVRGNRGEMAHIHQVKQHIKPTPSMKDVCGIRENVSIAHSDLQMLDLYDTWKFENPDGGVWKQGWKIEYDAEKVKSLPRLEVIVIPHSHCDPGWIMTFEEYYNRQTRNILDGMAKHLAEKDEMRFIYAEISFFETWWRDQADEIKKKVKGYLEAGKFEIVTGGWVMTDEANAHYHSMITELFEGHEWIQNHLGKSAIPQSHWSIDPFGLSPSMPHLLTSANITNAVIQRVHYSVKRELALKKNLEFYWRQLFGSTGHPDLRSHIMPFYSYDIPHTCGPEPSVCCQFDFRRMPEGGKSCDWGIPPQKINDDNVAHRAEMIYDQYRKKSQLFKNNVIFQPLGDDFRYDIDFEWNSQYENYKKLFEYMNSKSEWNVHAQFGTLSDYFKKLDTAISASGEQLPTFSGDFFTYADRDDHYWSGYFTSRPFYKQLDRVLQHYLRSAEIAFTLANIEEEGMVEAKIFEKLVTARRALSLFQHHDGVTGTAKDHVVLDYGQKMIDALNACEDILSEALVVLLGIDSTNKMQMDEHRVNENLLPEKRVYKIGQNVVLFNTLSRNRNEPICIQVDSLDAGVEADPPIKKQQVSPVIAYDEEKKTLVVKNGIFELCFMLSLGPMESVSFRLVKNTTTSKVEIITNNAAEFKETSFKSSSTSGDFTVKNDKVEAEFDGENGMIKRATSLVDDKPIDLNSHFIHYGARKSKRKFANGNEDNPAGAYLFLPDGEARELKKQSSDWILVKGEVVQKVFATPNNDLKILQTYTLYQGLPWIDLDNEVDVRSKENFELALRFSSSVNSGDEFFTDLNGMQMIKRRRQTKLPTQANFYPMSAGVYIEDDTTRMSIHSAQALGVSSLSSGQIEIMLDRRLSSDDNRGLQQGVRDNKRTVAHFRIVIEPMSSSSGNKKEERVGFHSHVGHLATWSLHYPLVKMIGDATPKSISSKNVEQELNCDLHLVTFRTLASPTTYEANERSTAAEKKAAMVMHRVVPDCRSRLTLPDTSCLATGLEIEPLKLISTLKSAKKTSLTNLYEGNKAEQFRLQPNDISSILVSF
Text: as §1
Recombinant soluble forms of Drosophila melanogaster Golgi (GMIIb) and lysosomal (LManII) α-mannosidases as well as Caenorhabditis elegans Golgi α-mannosidase AMAN-2 were produced in Pichia pastoris and enriched by ammonium sulfate precipitation or nickel chelation chromatography as previously described. The α-mannosidase from Canavalia ensiformis (JBMan) was purchased from Sigma. The mannosidase activity of these enzyme preparations were measured using p-nitrophenyl α -D-mannopyranoside ( pNP-Man; Sigma; 100 mM stock in dimethylsulfoxide) as a substrate at 2 mM final concentration in 50 mM acetate buffer of the relevant previously defined optimal pH, GMIIb and AMAN -2 at pH 6.0, LManII at pH 5.2 , and JBMan at pH 5.0) and 0.5 μL of the enzyme (0.05 µg of protein for JBMan), in a total volume of 50 μL for 1–2 h at 37 °C. GMIIb was assayed in the presence of 0.5 mM CoCl2.
as §5

[4] = target: T4, LManII (lysosomal α-mannosidase) (Drosophila melanogaster, UniProt Q9VKV1); assay: α-mannosidase inhibition assay with pNP-Man substrate, LManII; type: biochemical; conditions: for Ki: Dixon plots, pNP-Man 0.5-4 mM, pH 5.2
T4 sequence (Q9VKV1 entry or part of it): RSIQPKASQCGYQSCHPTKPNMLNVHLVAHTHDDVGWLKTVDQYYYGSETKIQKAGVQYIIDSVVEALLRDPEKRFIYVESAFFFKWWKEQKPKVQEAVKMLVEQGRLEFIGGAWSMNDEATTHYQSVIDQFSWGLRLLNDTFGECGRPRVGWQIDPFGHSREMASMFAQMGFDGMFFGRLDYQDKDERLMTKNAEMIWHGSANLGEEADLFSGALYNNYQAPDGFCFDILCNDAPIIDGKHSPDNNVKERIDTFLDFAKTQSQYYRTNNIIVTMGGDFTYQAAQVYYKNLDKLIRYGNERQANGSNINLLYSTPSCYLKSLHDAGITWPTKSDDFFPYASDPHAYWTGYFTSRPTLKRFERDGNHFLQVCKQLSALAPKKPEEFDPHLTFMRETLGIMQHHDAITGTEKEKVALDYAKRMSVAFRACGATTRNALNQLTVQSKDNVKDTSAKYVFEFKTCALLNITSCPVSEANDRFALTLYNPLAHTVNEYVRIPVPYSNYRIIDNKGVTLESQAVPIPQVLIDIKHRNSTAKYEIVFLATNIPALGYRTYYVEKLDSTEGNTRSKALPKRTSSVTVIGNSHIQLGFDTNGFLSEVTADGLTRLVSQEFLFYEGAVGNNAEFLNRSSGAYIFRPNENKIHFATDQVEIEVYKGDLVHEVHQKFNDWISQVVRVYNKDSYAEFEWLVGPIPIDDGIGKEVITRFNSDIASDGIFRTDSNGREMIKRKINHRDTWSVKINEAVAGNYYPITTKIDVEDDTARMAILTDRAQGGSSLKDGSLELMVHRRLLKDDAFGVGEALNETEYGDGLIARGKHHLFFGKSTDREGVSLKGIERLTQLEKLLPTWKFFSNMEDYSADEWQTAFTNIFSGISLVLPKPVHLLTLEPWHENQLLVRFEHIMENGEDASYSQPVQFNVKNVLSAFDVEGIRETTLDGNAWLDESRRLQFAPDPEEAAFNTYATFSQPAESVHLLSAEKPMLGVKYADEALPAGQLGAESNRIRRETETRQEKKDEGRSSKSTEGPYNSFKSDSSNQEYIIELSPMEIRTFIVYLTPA
Text: as §1, §2, §3, §4, §5

[5] = target: T2, GMIIb (Golgi α-mannosidase); conditions: ref Kóňa et al. [22]; cited from earlier work
[6] = target: T4, LManII (lysosomal α-mannosidase); conditions: ref Kóňa et al. [22]; cited from earlier work
[7] = target: T3, AMAN-2 (Golgi α-mannosidase II); conditions: cited from earlier work; for IC50: ref Kóňa et al. [22]
[8] = target: T1, JBMan (Jack bean α-mannosidase); conditions: ref Kóňa et al. [22]; cited from earlier work
[9] = target: T3, AMAN-2 (Golgi α-mannosidase II); assay: α-mannosidase inhibition assay with pNP-Man substrate, AMAN-2; type: biochemical; conditions: Dixon plots, pNP-Man 0.5-4 mM, pH 6.0
[10] = 2 mM pNP-Man, pH 6.0, 0.5 mM CoCl2, 37 °C, read-out: IC50 GMIIb
[11] = 2 mM pNP-Man, pH 6.0, 37 °C, read-out: IC50 AMAN-2
[12] = 2 mM pNP-Man, pH 5.2, 37 °C, read-out: IC50 LManII

Row | Compound | IC50 [1] | IC50 [2, 10] | IC50 [3, 11] | IC50 [4, 12] | Ki [1] | Ki [9] | Ki [2] | Selectivity index, SI [Ki (JBMan)/Ki (AMAN-2)] [3] | Ki [4] | also measured
1 | C[C@H](O)[C@@H]1[C@H](O)[C@H](O)CN1Cc1ccc2ccccc2c1 [compound 19] | > 4000 µM | 860 ± 140 µM | 1680 ± 75 µM | > 4000 µM | – | – | – | – | – | –
2 | OC[C@H]1NC[C@@H](O)[C@H]1O [compound 30] | – | – | – | – | – | – | – | – | – | IC50 [5]: 3.9 ± 0.1 µM; IC50 [6]: 30.5 ± 3 µM; Ki [7]: 2.3 µM; IC50 [7]: 2.3 ± 0.1 µM; SI [IC50 (JBMan)/IC50 (AMAN-2)] [3]: 5^b; IC50 [8]: 10.5 ± 1.3 µM
3 | C[C@H](O)[C@@H]1[C@H](O)[C@H](O)CN1Cc1ccc(I)cc1 [compound 18] | > 4000 µM | 170 ± 10 µM | 205 ± 5 µM | > 4000 µM | – | – | – | – | – | –
4 | N-2-naphthylmethyl 1,4-imino-ᴅ-lyxitol [compound 31] | – | – | – | – | – | – | – | – | – | IC50 [5]: 7.6 ± 1.1 µM; IC50 [6]: 845 ± 170 µM; IC50 [7]: 2.4 ± 0.1 µM; SI [IC50 (JBMan)/IC50 (AMAN-2)] [3]: 812^b; IC50 [8]: 1950 ± 250 µM
5 | C[C@@H](O)[C@@H]1[C@H](O)[C@H](O)CN1Cc1ccccc1 [compound 26] | 298 ± 30 µM | 33 ± 3.7 µM | 115 ± 18 µM | 505 ± 57 µM | 80 µM | 58 µM | 16.2 µM | 1.4 | 270 µM | –
6 | C[C@H]1NC[C@@H](O)[C@H]1O [compound 10] | 2880 ± 275 µM | – | – | – | – | – | – | – | – | IC50 [2]: 525 ± 25 µM; IC50 [3]: 415 ± 15 µM; IC50 [4]: > 4000 µM
7 | C[C@H](O)[C@H]1NC[C@@H](O)[C@H]1O [compound 20] | 105 ± 25 µM | 30 ± 5 µM | 48 ± 6 µM | 295 ± 20 µM | – | – | – | – | – | SI [IC50 (JBMan)/IC50 (AMAN-2)] [3]: 2.2^b
8 | C[C@@H](O)[C@H]1NC[C@@H](O)[C@H]1O [compound 29, 6-deoxy-DIM] | 0.32 ± 0.11 µM | 0.12 ± 0.02 µM | 0.24 ± 0.05 µM | 0.82 ± 0.19 µM | 0.12 µM | 0.19 µM | 0.065 µM | 0.6 | 0.38 µM | times more potent toward AMAN-2 than DIM [3]: ~4 times; times more potent toward AMAN-2 than DIM ([3]; listed as 6-deoxy-DIM): 3.5 times
9 | C[C@H](O)[C@@H]1[C@H](O)[C@H](O)CN1Cc1ccccc1 [compound 17] | > 4000 µM | 335 ± 37 µM | 990 ± 10 µM | > 4000 µM | – | – | – | – | – | –
10 | C[C@@H]1[C@H](O)[C@H](O)CN1Cc1ccc(I)cc1 [compound 8] | > 4000 µM | 205 ± 35 µM | 385 ± 15 µM | > 4000 µM | – | – | – | – | – | –
11 | C[C@@H](O)[C@@H]1[C@H](O)[C@H](O)CN1Cc1ccc(I)cc1 [compound 27] | 164 ± 28 µM | 13 ± 5.5 µM | 66 ± 10 µM | 410 ± 80 µM | 73 µM | 34 µM | 4.2 µM | 2.1 | 263 µM | –
12 | OC[C@@H](O)[C@H]1NC[C@@H](O)[C@H]1O [DIM, 1,4-dideoxy-1,4-imino-ᴅ-mannitol, reference compound] | 0.72 ± 0.03 µM | 0.19 ± 0.04 µM | 0.81 ± 0.03 µM | 2.55 ± 0.1 µM | 0.38 µM | 0.68 µM | 0.13 µM | 0.6 | 1.95 µM | –
13 | C[C@@H](O)[C@@H]1[C@H](O)[C@H](O)CN1Cc1ccc2ccccc2c1 [compound 28] | 78 ± 16 µM | 13.5 ± 5.5 µM | 22 ± 4 µM | 118 ± 10 µM | 44 µM | 18 µM | 5.2 µM | 2.4 | 98 µM | –
14 | C[C@@H]1[C@H](O)[C@H](O)CN1Cc1ccccc1 [compound 7] | > 4000 µM | 245 ± 35 µM | 975 ± 25 µM | > 4000 µM | – | – | – | – | – | –
15 | C[C@@H]1[C@H](O)[C@H](O)CN1Cc1ccc2ccccc2c1 [compound 9] | > 4000 µM | 310 ± 22 µM | 605 ± 35 µM | > 4000 µM | – | – | – | – | – | –
